As a reminder, the TGI is how far tumour growth fell short of that in controls. As usually defined, the pIC50 is the negative decadic logarithm of the IC50, by convention in mol/L. The low end stands for a large IC50, the high end for a small IC50.

These results are taken from ChEMBL document CHEMBL4261596, “Growth inhibition of human ovarian carcinoma by a novel AvidinOX-anchored biotinylated camptothecin derivative” (Bioorg Med Chem Lett, 2018).

pIC50: −log10 of the molar value. Activity calls are given as the source filed them. The rule behind the calls is not given here.

Data set [1] deals with Mus musculus. Kind of data set: Toxicity in Nu/Nu intratumorally dosed mouse xenografted with human […] cells assessed as effect on body weight administered as single dose starting from day 18 post tumor injection and measured for 50 days post dose. Format: organism-based. To be noted: in vivo, other, 1200 h. For orientation: In xenograft studies the graft and the host belong to different species.

Data set [2] has as its target Streptavidin (Streptomyces avidinii) (UniProt P22629). Kind of data set: Binding affinity to Streptomyces avidinii streptavidin assessed as reduction in biotinylated-alkaline phosphatase (unknown origin) binding at 1 to 1000 uM by ELISA.
Data set [3] has as its system Mus musculus. Kind of data set: Toxicity in Nu/Nu intratumorally dosed mouse xenografted with human […] cells assessed as effect on body weight administered as single dose starting from day 18 post tumor injection and measured for 50 days post dose using avidinOX conjugated compound. Format: organism-based. To be noted: in vivo, other, 1200 h.
For data set [4], the system named is SK-OV-3. In words: Antitumor activity against human SKOV3 cells xenografted in intratumorally dosed Nu/Nu mouse assessed as inhibition of tumor volume administered as single dose and monitored for 2 weeks starting from day 18 post tumor injection and measured after 32 days post dose. The class given is functional.
The next data set has as its system A-431. In words: Antiproliferative activity against human A431 cells. The class given is functional, cell-based.
Data set [5] relates to SK-OV-3. Kind of data set: Antitumor activity against human SKOV3 cells xenografted in intratumorally dosed Nu/Nu mouse assessed as inhibition of tumor volume administered as single dose and monitored for 2 weeks starting from day 18 post tumor injection and measured after 32 days post dose using avidinOX conjugated compound. The class given is functional.

Chain of Streptavidin (Streptomyces avidinii) (P22629 whole entry): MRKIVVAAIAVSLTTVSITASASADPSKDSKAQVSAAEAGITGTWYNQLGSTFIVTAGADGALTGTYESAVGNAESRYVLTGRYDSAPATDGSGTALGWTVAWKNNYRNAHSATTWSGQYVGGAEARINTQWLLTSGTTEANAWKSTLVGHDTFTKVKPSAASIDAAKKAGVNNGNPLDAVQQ

`CC[C@@]1(OC(=O)OCCSSCCNC(=O)CCCC[C@@H]2SC[C@@H]3NC(=O)N[C@@H]32)C(=O)OCc2c1cc1n(c2=O)Cc2c-1nc1ccccc1c2/C=N/OC(C)(C)C`: the Activity entry with Mus musculus [1] and in the data set on Mus musculus [3] was “Non-Toxic” each time. In addition, in data set [2], the result was Active. The TGI in the data set on SK-OV-3 [4] stood at 48%; in the data set with SK-OV-3 [5], 68%. The compound also gave a pIC50 in the data set with A-431 of 8.04.
